Data on 23 compounds can be found in paper PMC3179844 (Chemmedchem, 2011).

Marks after values point to notes of the source that are not given here.

A word on the inhibition: it is the drop in the measured response relative to a control, in per cent. The melting point is the temperature of the solid-liquid transition. The term IC50 denotes the midpoint of a concentration-inhibition curve. A high value points to weaker potency. As a reminder, the half-life is how long it takes for the measured level to halve. The low end stands for rapid decline, the high end for slow decline. By microsomal CLint is commonly meant a measure of how fast metabolising enzymes remove a compound, apart from limits set by blood flow. A lower microsomal CLint goes with greater metabolic stability. A word on the solubility: it is the dissolved amount per volume that the medium holds. A high value points to much dissolved substance.

One data set concerns the target human 11β-HSD1 (Homo sapiens, UniProt P28845). As to the kind of experiment: Cellular 11β-HSD1 inhibition assay. As to conditions: for inhibition at 1 µM: HEK293, read-out: Percent inhibition measured at 1 μM.
Data set [1] deals with human cytochrome P450 3A4-BQ (Homo sapiens, UniProt P08684). Put plainly: Inhibition of human cytochrome P450 3A4-BQ.
Chain of human cytochrome P450 3A4-BQ (P08684 whole entry): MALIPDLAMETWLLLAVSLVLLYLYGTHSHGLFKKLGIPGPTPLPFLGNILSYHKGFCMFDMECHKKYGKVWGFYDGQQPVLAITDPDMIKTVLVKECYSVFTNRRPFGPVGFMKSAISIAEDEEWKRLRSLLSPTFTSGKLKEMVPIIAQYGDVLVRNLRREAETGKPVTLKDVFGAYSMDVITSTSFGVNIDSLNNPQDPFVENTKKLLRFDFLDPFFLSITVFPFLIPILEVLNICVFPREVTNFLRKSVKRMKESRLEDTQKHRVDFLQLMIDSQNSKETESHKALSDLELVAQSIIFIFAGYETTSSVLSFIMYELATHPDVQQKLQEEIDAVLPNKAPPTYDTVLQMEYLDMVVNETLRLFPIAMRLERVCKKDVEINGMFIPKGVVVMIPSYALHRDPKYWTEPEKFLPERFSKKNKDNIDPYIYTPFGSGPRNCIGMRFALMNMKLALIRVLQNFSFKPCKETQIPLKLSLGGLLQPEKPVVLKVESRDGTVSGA
Data set [2] concerns the target human cytochrome P450 2C9 (Homo sapiens, UniProt P11712). Put plainly: Inhibition of human cytochrome P450 2C9. It counts as in vitro ADME.
Data set [3] has as its target human cytochrome P450 3A4-BFC (Homo sapiens, UniProt P08684). Put plainly: Inhibition of human cytochrome P450 3A4-BFC. It counts as in vitro ADME.
Data set [4] deals with human cytochrome P450 2C19 (Homo sapiens, UniProt P33261). Put plainly: Inhibition of human cytochrome P450 2C19. The format is in vitro ADME.
Chain of human cytochrome P450 2C19 (P33261 whole entry): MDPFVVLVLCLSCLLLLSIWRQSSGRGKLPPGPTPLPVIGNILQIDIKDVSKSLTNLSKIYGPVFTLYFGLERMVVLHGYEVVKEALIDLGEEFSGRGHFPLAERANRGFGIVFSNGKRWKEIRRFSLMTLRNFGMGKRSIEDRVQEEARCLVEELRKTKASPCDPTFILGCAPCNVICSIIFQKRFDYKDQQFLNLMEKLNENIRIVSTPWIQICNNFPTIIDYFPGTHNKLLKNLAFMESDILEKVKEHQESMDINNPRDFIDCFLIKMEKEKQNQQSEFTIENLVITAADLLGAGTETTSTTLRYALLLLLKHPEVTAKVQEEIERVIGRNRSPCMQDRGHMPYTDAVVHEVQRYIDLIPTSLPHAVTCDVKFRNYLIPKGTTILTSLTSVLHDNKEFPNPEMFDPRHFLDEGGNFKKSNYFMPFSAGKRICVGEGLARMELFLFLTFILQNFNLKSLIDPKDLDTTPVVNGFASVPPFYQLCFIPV
For the next data set, the target named is mouse 11β-HSD1 (Mus musculus, UniProt P50172). As to the kind of experiment: Cellular 11β-HSD1 inhibition, mouse enzyme. It counts as cell-based. The conditions noted are these: mean of three measurements.
Chain of mouse 11β-HSD1 (P50172 whole entry): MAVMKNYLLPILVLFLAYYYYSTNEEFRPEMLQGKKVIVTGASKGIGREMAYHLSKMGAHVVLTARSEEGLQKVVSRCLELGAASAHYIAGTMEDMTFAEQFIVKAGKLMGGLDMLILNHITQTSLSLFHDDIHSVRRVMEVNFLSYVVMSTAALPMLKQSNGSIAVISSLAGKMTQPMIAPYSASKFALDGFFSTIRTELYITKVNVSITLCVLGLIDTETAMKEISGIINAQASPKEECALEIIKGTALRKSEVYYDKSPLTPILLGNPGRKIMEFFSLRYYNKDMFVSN
Data set [5] addresses T1, human cytochrome P450 1A2 (Homo sapiens, UniProt P05177).
T1 sequence (P05177 1-516): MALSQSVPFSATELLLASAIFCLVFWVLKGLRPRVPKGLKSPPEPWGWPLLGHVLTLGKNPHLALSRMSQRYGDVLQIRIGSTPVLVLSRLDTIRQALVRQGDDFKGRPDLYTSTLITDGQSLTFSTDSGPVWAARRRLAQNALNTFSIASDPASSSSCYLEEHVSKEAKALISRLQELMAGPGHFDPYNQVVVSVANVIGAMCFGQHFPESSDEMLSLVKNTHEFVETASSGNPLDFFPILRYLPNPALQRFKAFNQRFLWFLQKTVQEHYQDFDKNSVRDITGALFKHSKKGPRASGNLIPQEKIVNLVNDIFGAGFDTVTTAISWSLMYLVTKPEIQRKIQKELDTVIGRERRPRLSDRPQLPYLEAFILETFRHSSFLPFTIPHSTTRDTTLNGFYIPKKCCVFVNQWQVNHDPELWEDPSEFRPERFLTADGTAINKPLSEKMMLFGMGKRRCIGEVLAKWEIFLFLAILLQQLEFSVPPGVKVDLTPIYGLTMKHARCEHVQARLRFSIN
As to the kind of experiment: Inhibition of human cytochrome P450 1A2. The format is in vitro ADME.

The nature of data set [6]: Metabolism studies in human liver microsomes. It counts as in vitro ADME. The conditions noted are these: for half-life / metabolites identified: human liver microsomes, 37 °C, NADPH; for half-life: 40 min, mean of two measurements.
For data set [7], the target named is human cytochrome P450 2D6 (Homo sapiens, UniProt P10635). As to the kind of experiment: Inhibition of human cytochrome P450 2D6. It counts as in vitro ADME.
Chain of human cytochrome P450 2D6 (P10635 whole entry): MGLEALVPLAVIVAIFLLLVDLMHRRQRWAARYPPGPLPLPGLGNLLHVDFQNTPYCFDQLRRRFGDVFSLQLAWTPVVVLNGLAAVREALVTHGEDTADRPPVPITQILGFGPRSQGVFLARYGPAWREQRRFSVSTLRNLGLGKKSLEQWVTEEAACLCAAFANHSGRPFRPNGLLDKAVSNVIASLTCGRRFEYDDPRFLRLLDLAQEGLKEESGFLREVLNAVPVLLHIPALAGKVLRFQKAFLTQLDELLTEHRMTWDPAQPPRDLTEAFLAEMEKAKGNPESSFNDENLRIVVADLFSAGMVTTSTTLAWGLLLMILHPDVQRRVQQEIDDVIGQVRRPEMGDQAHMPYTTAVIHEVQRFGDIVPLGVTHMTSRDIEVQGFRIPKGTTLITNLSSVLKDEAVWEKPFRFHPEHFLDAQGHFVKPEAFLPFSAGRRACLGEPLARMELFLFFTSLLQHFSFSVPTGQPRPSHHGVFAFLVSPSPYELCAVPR
Data set [8] is described as follows: Water solubility in Na2HPO4 buffer solution. As to conditions: aqueous buffer. The format is physicochemical.
[9] abbreviates: ratio of IC50 values, human 11β-HSD1.
Setting [10] is: human, liver microsomes, Half-life.

Chain of human 11β-HSD1 (P28845 whole entry): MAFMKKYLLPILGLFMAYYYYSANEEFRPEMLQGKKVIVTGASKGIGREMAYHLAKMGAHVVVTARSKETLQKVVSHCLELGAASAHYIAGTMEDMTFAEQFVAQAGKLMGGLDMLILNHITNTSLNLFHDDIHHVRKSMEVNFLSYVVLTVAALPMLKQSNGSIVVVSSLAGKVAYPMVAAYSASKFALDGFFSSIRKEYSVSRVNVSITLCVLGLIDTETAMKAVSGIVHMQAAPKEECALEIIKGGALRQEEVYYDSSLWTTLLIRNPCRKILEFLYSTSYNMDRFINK
Chain of human cytochrome P450 3A4-BFC (P08684 whole entry): as the sequence (P08684 whole entry) above
Chain of human cytochrome P450 2C9 (P11712 whole entry): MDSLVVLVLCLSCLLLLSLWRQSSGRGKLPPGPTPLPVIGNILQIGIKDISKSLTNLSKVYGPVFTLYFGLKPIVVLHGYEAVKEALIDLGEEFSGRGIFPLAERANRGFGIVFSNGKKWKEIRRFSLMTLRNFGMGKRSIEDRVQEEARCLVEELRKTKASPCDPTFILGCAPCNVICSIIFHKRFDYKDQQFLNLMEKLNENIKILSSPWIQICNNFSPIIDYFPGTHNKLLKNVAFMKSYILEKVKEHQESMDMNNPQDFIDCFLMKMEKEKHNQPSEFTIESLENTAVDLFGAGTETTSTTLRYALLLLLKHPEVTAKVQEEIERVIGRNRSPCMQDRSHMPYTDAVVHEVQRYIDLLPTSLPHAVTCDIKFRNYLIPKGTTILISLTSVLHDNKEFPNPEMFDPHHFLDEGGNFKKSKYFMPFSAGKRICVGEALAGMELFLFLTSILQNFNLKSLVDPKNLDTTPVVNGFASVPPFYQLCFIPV

With `ON=C(COCc1ccccn1)C12CC3CC(CC(C3)C1)C2` [Compound 35, N-[1-(Adamantan-1-yl)-2-(pyridin-2-ylmethoxy)ethylidene]hydroxylamine], the “inhibition at 1 μM (in words)” value at human 11β-HSD1 (1 μM, HEK293/HSD11B1 cells) is given as “none of the oxime compound shows any significant inhibition”.

As for “6-{[2-(Adamantan-1-yl)-2-oxoethyl]sulfanyl}-N-methylpyridine-3-carboxamide [Compound 25]”, the “Percent inhibition measured at 1 μM” value on human 11β-HSD1 (1 μM, HEK293/HSD11B1 cells, mean of two measurements) is 73 % ^[b].

For `O=C(CSCc1ccc(C(F)(F)F)nc1)C12CC3CC(CC(C3)C1)C2` [Compound 48, 1-(Adamantan-1-yl)-2-({[6-(trifluoromethyl)pyridin-3-yl]methyl}sulfanyl)ethan-1-one], the melting point is 80 to 82 °C. For the same compound, the inhibition at 1 µM at human 11β-HSD1 stood at 20%.

In turn, `O=C(CSc1ccc(C(F)(F)F)cn1)C12CC3CC(CC(C3)C1)C2` [Compound 22, 1-(Adamantan-1-yl)-2-{[5-(trifluoromethyl)pyridin-2-yl]sulfanyl}ethan-1-one] registered a melting point of 141 to 142 °C. Also, the “fold reduction in activity compared with the unsubstituted derivative 13” value at human 11β-HSD1 (setting [9]) is given as 51 fold.

Turning to `Cc1cccc(OCC(=O)C23CC4CC(CC(C4)C2)C3)n1` [Compound 6, 1-(Adamantan-1-yl)-2-[(6-methylpyridin-2-yl)oxy]ethan-1-one], the melting point lay in the range of 85 to 87 °C. On human 11β-HSD1 (IC50, human 11β-HSD1, HEK293/HSD11B1 cells), this compound gave an IC50 of 3.1 µM.

For `O=C(CS(=O)(=O)Cc1ccccn1)C12CC3CC(CC(C3)C1)C2` [Compound 43, 1-(Adamantan-1-yl)-2-[(pyridin-2-ylmethyl)sulfonyl]ethan-1-one], the melting point was in the range of 116 to 117 °C. In addition, in data set [1], the midpoint of inhibition, the IC50, lay at 24 µM. The same compound registered an IC50 in data set [2] of more than 100 µM. The same compound had an IC50 in data set [3] of more than 100 µM. The compound also registered an IC50 in data set [4] of 24 µM. At mouse 11β-HSD1, the half-maximal inhibitory concentration (IC50) came to 0.035 µM. The same compound came in with an IC50 in [5] of 36 µM.

In turn, `O=C(C[S+]([O-])c1ccccn1)C12CC3CC(CC(C3)C1)C2` (centres unmarked) [Compound 16, 1-(Adamantan-1-yl)-2-(pyridine-2-sulfinyl)ethan-1-one] came in with a melting point of 66 to 68 °C. For the same compound, the half-life in data set [6] came out at 0.333 h. The compound also showed a microsomal CLint in data set [6] (human, liver microsomes) of 31 µL/min/mg. This compound also showed a half-life in data set [6] (setting [10]) of 0.333 to 0.5 h. Moreover, the IC50 against mouse 11β-HSD1 turned out to be 0.043 µM.

`O=C(C[S+]([O-])Cc1ccccn1)C12CC3CC(CC(C3)C1)C2` (centres unmarked) [Compound 40, 1-(Adamantan-1-yl)-2-[(pyridin-2-ylmethyl)sulfinyl]ethan-1-one]: the melting point was in the range of 87 to 88 °C. Half-maximal inhibition against mouse 11β-HSD1 (IC50) was put at 0.248 µM.

Compound `O=C(C[S+]([O-])c1ccncc1)C12CC3CC(CC(C3)C1)C2` (centres unmarked) [Compound 18, 1-(Adamantan-1-yl)-2-(pyridine-4-sulfinyl)ethan-1-one] returned a melting point of 136 to 138 °C. In data set [1], this compound returned an IC50 of more than 100 µM. In data set [2], this compound registered an IC50 of more than 100 µM. In data set [3], this compound yielded a 50% inhibitory concentration (IC50) of 12 µM. Moreover, in data set [4], the IC50 is more than 100 µM. Moreover, the IC50 at mouse 11β-HSD1 was found to be 0.061 µM. The IC50 in data set [5] was more than 100 µM. In data set [7], this compound came in with an IC50 of more than 100 µM.

In turn, `Cc1cccc([S+]([O-])CC(=O)C23CC4CC(CC(C4)C2)C3)n1` (centres unmarked) [Compound 17, 1-(Adamantan-1-yl)-2-(6-methylpyridine-2-sulfinyl)ethan-1-one] displayed a melting point of 75 to 76 °C. This compound also returned an IC50 at mouse 11β-HSD1 of 0.068 µM.

For the compound `O=C(COCc1cccnc1)C12CC3CC(CC(C3)C1)C2` [Compound 31, 1-(Adamantan-1-yl)-2-(pyridin-3-ylmethoxy)ethan-1-one], the IC50 in data set [1] is 1.6 µM; in data set [2], more than 100 µM; in data set [3], 68 µM; in data set [4], 46 µM; in data set [5], 23 µM. Also, the metabolites identified result in [6] is on record as “no metabolites identified”. The same compound displayed a microsomal CLint in [6] (human, liver microsomes) of 3.7 µL/min/mg. Moreover, in data set [6] (setting [10]), the half-life was 2.13 h.

The compound `ON=C(COCc1cccnc1)C12CC3CC(CC(C3)C1)C2` [Compound 36, N-[1-(Adamantan-1-yl)-2-(pyridin-3-ylmethoxy)ethylidene]hydroxylamine] had a melting point of 115 to 117 °C. Besides, the “inhibition at 1 μM (in words)” value against human 11β-HSD1 (1 μM, HEK293/HSD11B1 cells) was “none of the oxime compound shows any significant inhibition”.

In turn, `Cl.O=C(COCc1cccnc1)C12CC3CC(CC(C3)C1)C2` [Compound 62, 1-(Adamantan-1-yl)-2-(pyridin-3-ylmethoxy)ethan-1-one hydrochloride] returned a solubility in [8] of more than 4 mg/mL.

Turning to `O=C(COCc1ccccn1)C12CC3CC(CC(C3)C1)C2` [Compound 28, 1-(Adamantan-1-yl)-2-(pyridin-2-ylmethoxy)ethan-1-one], the IC50 was 78 µM in data set [1]; more than 100 µM in [2]; 20 µM in [3]; more than 100 µM in data set [4]; 0.044 µM on mouse 11β-HSD1; more than 100 µM in [5]. The IC50 in data set [7] was more than 100 µM. Besides, the metabolites identified result in data set [6] is listed as “no metabolites identified”. For the same compound, the microsomal CLint in data set [6] (human, liver microsomes) amounted to 8.9 µL/min/mg. Further, in data set [6] (setting [10]), the half-life is 1.13 h.

For the compound `O=C(CS(=O)(=O)Cc1ccc(C(F)(F)F)nc1)C12CC3CC(CC(C3)C1)C2` [Compound 52, 1-(Adamantan-1-yl)-2-({[6-(trifluoromethyl)pyridin-3-yl]methyl}sulfonyl)ethan-1-one], the melting point was 87 to 89 °C. The inhibition at 1 µM on human 11β-HSD1 turned out to be 54%.

As for `O=C(COCc1ccc(C(F)(F)F)nc1)C12CC3CC(CC(C3)C1)C2` [Compound 34, 1-(Adamantan-1-yl)-2-{[6-(trifluoromethyl)pyridin-3-yl]methoxy}ethan-1-one], the melting point lay in the range of 106 to 109 °C. In addition, the inhibition at 1 µM at human 11β-HSD1 is 33%.

`Cc1cccc(SCC(=O)C23CC4CC(CC(C4)C2)C3)n1` [Compound 14, 1-(Adamantan-1-yl)-2-[(6-methylpyridin-2-yl)sulfanyl]ethan-1-one]: the melting point is 116 to 117 °C. The inhibition at 1 µM on human 11β-HSD1 was determined as 70%.

`O=C(COc1cccnc1Cl)C12CC3CC(CC(C3)C1)C2` [Compound 10, 1-(Adamantan-1-yl)-2-[(2-chloropyridin-3-yl)oxy]ethan-1-one] returned a melting point of 125 to 128 °C.

For the compound `O=C(COc1cccnc1)C12CC3CC(CC(C3)C1)C2` [Compound 12, 1-(Adamantan-1-yl)-2-(pyridin-3-yloxy)ethan-1-one], the melting point is 73 to 75 °C. For the same compound, the IC50 at mouse 11β-HSD1 came to 0.16 µM.

Compound `O=C(CSCc1ccc(Cl)nc1)C12CC3CC(CC(C3)C1)C2` [Compound 49, 1-(Adamantan-1-yl)-2-{[(6-chloropyridin-3-yl)methyl]sulfanyl}ethan-1-one] returned a melting point of 88 to 90 °C. For the same compound, the inhibition at 1 µM at human 11β-HSD1 stood at 31%.

Compound `O=C(COc1cncc(Cl)c1)C12CC3CC(CC(C3)C1)C2` [Compound 9, 1-(Adamantan-1-yl)-2-[(5-chloropyridin-3-yl)oxy]ethan-1-one] had a melting point of 127 to 128 °C.

`Cc1ccc(OCC(=O)C23CC4CC(CC(C4)C2)C3)cn1` [Compound 11, 1-(Adamantan-1-yl)-2-[(6-methylpyridin-3-yl)oxy]ethan-1-one] returned a melting point of 86 to 87 °C. Further, the “fold improvement in activity compared with the 2-pyridyl analogue 6” value on human 11β-HSD1 (setting [9]) is 38 fold.

In turn, `O=C(COc1cccc(Cl)n1)C12CC3CC(CC(C3)C1)C2` [Compound 7, 1-(Adamantan-1-yl)-2-[(6-chloropyridin-2-yl)oxy]ethan-1-one] came in with a melting point of 90 to 93 °C.
